Experimental findings from ChEMBL document CHEMBL4219140, “First discovery of a potential carbonate prodrug of NNRTI drug candidate RDEA427 with submicromolar inhibitory activity against HIV-1 K103N/Y181C double mutant strain” (Bioorg Med Chem Lett, 2018) are described below.

Broadly, the CC50 is the concentration at which the toxic effect on the cells reaches its halfway point. In general, IC50 refers to the point on the concentration scale where inhibition reaches its midpoint. The term EC50 denotes the midpoint of the concentration-response curve.

Series [1] can be described thus: Cytotoxicity against human MT4 cells after 5 days by MTT assay. It counts as cell-based.
Series [2] relates to Human immunodeficiency virus 1. The series can be described thus: Resistance index, ratio of EC50 for HIV1 RES056 harboring K103N/Y181C double mutant infected in human MT4 cells to EC50 for wild-type HIV1 3B infected in human MT4 cells. The format is functional.
The target of series [3] is Human immunodeficiency virus type 1 reverse transcriptase (Human immunodeficiency virus 1, UniProt Q72547). The series can be described thus: Inhibition of recombinant wild-type HIV1 reverse transcriptase p66/p51 RNA-dependent DNA polymerase activity assessed as reduction in biotin-dUTP incorporation using poly(rA)/oligo(dT)16 as template/primer after 40 mins by PicoGreen dye based spectrofluorometric analysis.

Series [4] relates to Human immunodeficiency virus 1. The series is described as follows: Antiviral activity against HIV1 3B expressing wild type reverse transcriptase infected in human MT4 cells assessed as protection against virus-induced cytopathic effect after 5 days by MTT assay. To be noted: Human immunodeficiency virus 1, 3B, MT4, 120 h. The format is functional, organism-based. For orientation: Protection from cytopathic effect is a common read-out in antiviral testing.

Series [5] is described as follows: Selectivity index, ratio of CC50 for human MT4 cells to EC50 for HIV1 RES056 expressing reverse transcriptase K103N/Y181C double mutant. It counts as toxicity. To be noted: read-out: Ratio CC50/EC50.
Series [6] deals with Human immunodeficiency virus 1. The series is described as follows: Antiviral activity against HIV1 RES056 expressing reverse transcriptase K103N/Y181C double mutant infected in human MT4 cells assessed as protection against virus-induced cytopathic effect after 5 days by MTT assay. It counts as functional, organism-based. As to conditions: Human immunodeficiency virus 1, RES056, MT4, 120 h.

A short description of series [7]: Selectivity index, ratio of CC50 for human MT4 cells to EC50 for HIV1 3B expressing wild type reverse transcriptase infected in human MT4 cells. It counts as toxicity, cell-based. As to conditions: read-out: Ratio CC50/EC50.
A short description of series [8]: Prodrug conversion in human plasma assessed as RDEA427 formation by measuring remaining prodrug levels at 100 uM measured after 30 mins by LC-MS/MS analysis. It counts as ADME, cell-free. As to conditions: 0.5 h.
Series [9] in a line: Prodrug conversion in human plasma assessed as RDEA427 formation at 100 uM by LC-MS/MS analysis. It counts as ADME, cell-free. As to conditions: TDE = time-dependent effect.
Series [10] can be described thus: Prodrug conversion in human plasma assessed as RDEA427 formation by measuring remaining prodrug levels at 100 uM measured after 120 mins by LC-MS/MS analysis. As to conditions: 2 h. It counts as ADME, cell-free.
In series [11] the test system is Human immunodeficiency virus 2. The series is described as follows: Antiviral activity against HIV2 ROD infected in human MT4 cells after 5 days by MTT assay. The format is functional, organism-based. To be noted: ISOLATE ROD.
Series [12] is described as follows: Prodrug conversion in human plasma assessed as RDEA427 formation by measuring remaining prodrug levels at 100 uM measured after 60 mins by LC-MS/MS analysis. The format is ADME, cell-free. As to conditions: 1 h.
The nature of series [13]: Prodrug conversion in human plasma assessed as RDEA427 formation by measuring remaining prodrug levels at 100 uM measured after 10 mins by LC-MS/MS analysis. It counts as ADME, cell-free.
Series [14] is described as follows: Metabolic stability in human plasma assessed as parent compound remaining at 100 uM after 60 mins by LC-MS/MS analysis. The format is ADME, cell-free. To be noted: read-out: Stability.
Series [15] can be described thus: Metabolic stability in human plasma assessed as parent compound remaining at 100 uM after 10 mins by LC-MS/MS analysis. The format is ADME, cell-free. To be noted: read-out: Stability.
A short description of series [16]: Metabolic stability in human plasma assessed as parent compound remaining at 100 uM after 120 mins by LC-MS/MS analysis. The format is ADME, cell-free. To be noted: read-out: Stability.
Series [17] in a line: Metabolic stability in human plasma assessed as parent compound remaining at 100 uM after 30 mins by LC-MS/MS analysis. It counts as ADME, cell-free. To be noted: read-out: Stability.

The source made the active and inactive calls. The rule behind the calls is not given here.

Compound `Cc1cc(C#N)cc(C)c1Oc1nc(Nc2ccc(C#N)cc2)nc2[nH]ccc12` displayed a CC50 at 120 h in [1] of at least 1240 nM. In series [2], the “Ratio EC50” value is recorded as 19.1. The IC50 in series [3] was 16 nM. For the same compound, the EC50 is 2.9 nM in series [4] and 56 nM in [6]. Also, the figures for the selectivity ratio in series [5] and in series [7] were at least 22 and at least 425, respectively.
Consider `Cc1cc(C#N)cc(C)c1Oc1nc(Nc2ccc(C#N)cc2)nc2c1ccn2COC(=O)OC(C)C`, for which the Stability in series [8] is given as 73.9%; in series [10], 56.4%; in [12] it was 53.3%; in series [13], 87.8%. Moreover, in series [1], it took 1050 nM to reach half-maximal cytotoxicity (CC50 at 120 h). For the same compound, in series [2], the “Ratio EC50” value is listed as 27.3. Besides, the IC50 in [3] amounted to 264 nM. For the same compound, the Drug metabolism entry in series [9] is “Tde”. In addition, the outcome in [11] was inactive. The EC50 in series [4] turned out to be 5.5 nM; in series [6] it was 150 nM. The selectivity ratio in series [5] came to 7; in [7], 190.
`O=C1Nc2ccc(Cl)cc2[C@@](C#CC2CC2)(C(F)(F)F)O1` [EFAVIRENZ] showed a CC50 at 120 h in series [1] of over 6340 nM. For the same compound, the “Ratio EC50” value in series [2] is recorded as 30. Also, the EC50 came out at 4.8 nM in series [4] and 140 nM in series [6]. In addition, the figures for the selectivity ratio in [5] and in [7] were over 44 and over 1320, respectively.
On to `Cc1cc(C#N)cc(C)c1Oc1nc(Nc2ccc(C#N)cc2)nc(N)c1Br` [ETRAVIRINE], for which the CC50 at 120 h in [1] is over 4590 nM. For the same compound, in [2], the “Ratio EC50” value came out at 12. The EC50 in series [4] amounted to 3.9 nM; in series [6] it was 47 nM. Besides, the selectivity ratio is over 97 in [5] and over 1170 in series [7].
Compound `Cc1ccnc2c1NC(=O)c1cccnc1N2C1CC1` [NEVIRAPINE] came in with a CC50 at 120 h in series [1] of over 15000 nM. In addition, the EC50 in series [4] is 440 nM; in series [6] it was over 15000 nM. The figures for the selectivity ratio in series [5] and in series [7] were 1 and over 34, respectively.
`CC(C)[N+](C)(CCOC(=O)C1c2ccccc2Oc2ccccc21)C(C)C` [PROPANTHELINE]: the remaining at 1 h, 100 µM in series [14] was determined as 5.1%. Further, the remaining at 10 min, 100 µM in series [15] came out at 54.8%. In series [16], the remaining at 2 h, 100 µM came to 0.5%. Besides, the remaining at 0.5 h, 100 µM in [17] is 19.4%.
